Broadly, the IC50 is the concentration needed to halve the response being measured.

From article PMC8955712, “Rapid Mining of Novel α-Glucosidase and Lipase Inhibitors from Streptomyces sp. HO1518 Using UPLC-QTOF-MS/MS” (Marine Drugs, 2022) come the findings set out here.

Type in all cases: biochemical
One test concerns the target sucrase. The test can be described thus: Sucrase inhibition assay. The settings on record: mean ± SD; acarbose positive control; read-out: IC50 Values Against Sucrase. An excerpt: The HPLC-grade methanol and acetonitrile were purchased from CINC High Purity Solvents (Shanghai) Co., Ltd. (Shanghai, China). The other solvents were of analytical grade (Sinopharm Chemical Reagent Co., Ltd., Beijing, China). Porcine pancreatic α-amylase (PPA) and PL were purchased from Sigma Aldrich Co. (St Louis, MO, USA). Sucrase and acarbose were obtained from Shanghai yuanye Bio-Technology Co., Ltd. (Shanghai, China). Orlistat was bought from Shanghai xushuo Bio-Technology Co., Ltd. (Shanghai, China). Standards 1–9 were previously isolated from Streptomyces sp. HO1518 by our group.
The sucrase inhibition assay of compounds 9–20 was evaluated according to the previously reported method.

Test [1] addresses T1, Porcine pancreatic α-amylase (PPA) (Sus scrofa, UniProt P00690).
T1 construct: purchased Sigma Aldrich Co. (St Louis, MO, USA)
T1 sequence (P00690 16-511): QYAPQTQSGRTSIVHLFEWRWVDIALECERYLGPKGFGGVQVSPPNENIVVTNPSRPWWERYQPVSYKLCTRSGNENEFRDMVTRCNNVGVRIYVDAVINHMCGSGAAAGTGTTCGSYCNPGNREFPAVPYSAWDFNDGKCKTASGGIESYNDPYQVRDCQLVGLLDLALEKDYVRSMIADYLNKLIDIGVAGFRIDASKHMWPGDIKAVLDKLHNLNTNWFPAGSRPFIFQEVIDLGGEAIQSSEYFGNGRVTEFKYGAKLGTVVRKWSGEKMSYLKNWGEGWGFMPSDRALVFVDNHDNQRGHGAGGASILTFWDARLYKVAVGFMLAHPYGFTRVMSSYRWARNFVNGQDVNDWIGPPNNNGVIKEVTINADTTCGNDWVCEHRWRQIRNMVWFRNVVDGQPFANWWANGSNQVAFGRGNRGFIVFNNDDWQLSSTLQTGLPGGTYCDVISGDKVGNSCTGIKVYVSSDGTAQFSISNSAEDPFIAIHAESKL
The test can be described thus: PPA inhibition assay. The settings on record: for IC50: read-out: IC50 Values Against PPA. An excerpt:
(§1) The HPLC-grade methanol and acetonitrile were purchased from CINC High Purity Solvents (Shanghai) Co., Ltd. (Shanghai, China). The other solvents were of analytical grade (Sinopharm Chemical Reagent Co., Ltd., Beijing, China). Porcine pancreatic α-amylase (PPA) and PL were purchased from Sigma Aldrich Co. (St Louis, MO, USA). […] Standards 1–9 were previously isolated from Streptomyces sp. HO1518 by our group.

A further test addresses T2, pancreatic lipase (PL) (Sus scrofa, UniProt P00591).
T2 construct: purchased Sigma Aldrich Co. (St Louis, MO, USA)
T2 sequence (P00591 1-450): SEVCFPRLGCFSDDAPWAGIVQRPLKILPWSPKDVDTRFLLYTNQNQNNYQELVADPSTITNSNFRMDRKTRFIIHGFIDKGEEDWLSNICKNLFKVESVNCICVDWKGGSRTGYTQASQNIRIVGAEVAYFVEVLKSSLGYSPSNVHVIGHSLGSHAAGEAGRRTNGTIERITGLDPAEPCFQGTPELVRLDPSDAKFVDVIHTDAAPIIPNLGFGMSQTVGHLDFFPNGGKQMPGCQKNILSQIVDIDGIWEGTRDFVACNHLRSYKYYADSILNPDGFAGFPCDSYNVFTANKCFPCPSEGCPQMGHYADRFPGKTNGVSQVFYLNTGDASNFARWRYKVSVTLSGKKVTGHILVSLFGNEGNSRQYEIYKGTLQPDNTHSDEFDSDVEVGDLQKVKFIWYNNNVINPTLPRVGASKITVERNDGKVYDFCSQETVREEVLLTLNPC
Briefly: PL (lipase) inhibition assay. The settings on record: read-out: IC50 Values Against PL.
Description: as §1

Where [2] appears, read: mean ± SD, acarbose positive control.
Setting [3] is: mean ± SD, orlistat positive control.

Where two headings read alike, the source gives them in different places.

For `CC1OC(OC2C(CO)OC(OC3C(CO)=CC(NC4C(C)OC(OC5C(CO)OC(OC6C(CO)OC(OC7C(CO)OC(OC8C(CO)OC(O)C(O)C8O)C(O)C7O)C(O)C6O)C(O)C5O)C(O)C4O)C(O)C3O)C(O)C2O)C(O)C(O)C1NC1C=C(CO)C(O)C(O)C1O` (stereo not drawn) [Compound 9, acarviostatin II03], the concentration for half-maximal inhibition (IC50) on sucrase worked out at 17200 ± 760 nM; in test [1], 30 ± 1 nM; at pancreatic lipase (PL), 7640 ± 130 nM. Besides, the “fold more effective than acarbose (α-amylase inhibition)” value in test [1] (ratio of PPA IC50 values, acarbose vs compound) is recorded as 282 fold.
For the compound `CCC(C)C(=O)OC[C@H]1O[C@H](O[C@H]2[C@H](O)[C@@H](O)[C@@H](O[C@H]3[C@H](O)[C@@H](O)[C@@H](O[C@H]4[C@H](O)[C@@H](O)C(O)O[C@@H]4CO)O[C@@H]3CO)O[C@@H]2CO)[C@H](O)[C@@H](O)[C@@H]1O[C@H]1O[C@H](C)[C@@H](N[C@H]2C=C(CO)[C@@H](O[C@H]3O[C@H](CO)[C@@H](O[C@H]4O[C@H](C)[C@@H](N[C@H]5C=C(CO)[C@@H](O)[C@H](O)[C@H]5O)[C@H](O)[C@H]4O)[C@H](O)[C@H]3O)[C@H](O)[C@H]2O)[C@H](O)[C@H]1O` (stereo partly drawn) [Compound 16, D6-O-2-Methyl-butyryl-acarviostatin II03], the concentration for half-maximal inhibition (IC50) on sucrase turned out to be 7280 ± 100 nM; in test [1] (setting [2]), 52 ± 3 nM; at pancreatic lipase (PL) (setting [3]), 1340 ± 30 nM.
Taken in the same sequence, the figures for `CC(C)CC(=O)OC[C@H]1O[C@H](O[C@H]2[C@H](O)[C@@H](O)[C@@H](O[C@H]3[C@H](O)[C@@H](O)[C@@H](O[C@H]4[C@H](O)[C@@H](O)C(O)O[C@@H]4CO)O[C@@H]3CO)O[C@@H]2CO)[C@H](O)[C@@H](O)[C@@H]1O[C@H]1O[C@H](C)[C@@H](N[C@H]2C=C(CO)[C@@H](O[C@H]3O[C@H](CO)[C@@H](O[C@H]4O[C@H](C)[C@@H](N[C@H]5C=C(CO)[C@@H](O)[C@H](O)[C@H]5O)[C@H](O)[C@H]4O)[C@H](O)[C@H]3O)[C@H](O)[C@H]2O)[C@H](O)[C@H]1O` (stereo partly drawn) [Compound 20, isoVa-Aca II03] were 9930 ± 500 nM, 80 ± 3 nM and 1430 ± 80 nM.
The corresponding values for `CC(O)CC(=O)OC[C@H]1O[C@H](O[C@H]2[C@H](O)[C@@H](O)[C@@H](O[C@H]3[C@H](O)[C@@H](O)[C@@H](O[C@H]4[C@H](O)[C@@H](O)C(O)O[C@@H]4CO)O[C@@H]3CO)O[C@@H]2CO)[C@H](O)[C@@H](O)[C@@H]1O[C@H]1O[C@H](C)[C@@H](N[C@H]2C=C(CO)[C@@H](O[C@H]3O[C@H](CO)[C@@H](O[C@H]4O[C@H](C)[C@@H](N[C@H]5C=C(CO)[C@@H](O)[C@H](O)[C@H]5O)[C@H](O)[C@H]4O)[C@H](O)[C@H]3O)[C@H](O)[C@H]2O)[C@H](O)[C@H]1O` (stereo partly drawn) [Compound 19, Hbu-Aca II03] are 9670 ± 100 nM, 61 ± 5 nM and 1000 ± 120 nM.
Taken in the same sequence, the figures for `CCC(=O)OC[C@H]1O[C@H](O[C@H]2[C@H](O)[C@@H](O)[C@@H](O[C@H]3[C@H](O)[C@@H](O)[C@@H](O[C@H]4[C@H](O)[C@@H](O)C(O)O[C@@H]4CO)O[C@@H]3CO)O[C@@H]2CO)[C@H](O)[C@@H](O)[C@@H]1O[C@H]1O[C@H](C)[C@@H](N[C@H]2C=C(CO)[C@@H](O[C@H]3O[C@H](CO)[C@@H](O[C@H]4O[C@H](C)[C@@H](N[C@H]5C=C(CO)[C@@H](O)[C@H](O)[C@H]5O)[C@H](O)[C@H]4O)[C@H](O)[C@H]3O)[C@H](O)[C@H]2O)[C@H](O)[C@H]1O` (stereo partly drawn) [Compound 14, D6-O-Propionyl-acarviostatin II03] were 2560 ± 120 nM, 35 ± 1 nM and 4210 ± 30 nM.
As for `C[C@H]1O[C@H](O[C@H]2[C@H](O)[C@@H](O)[C@@H](O[C@H]3[C@H](O)[C@@H](O)C(O)O[C@@H]3CO)O[C@@H]2CO)[C@H](O)[C@@H](O)[C@@H]1N[C@H]1C=C(CO)[C@@H](O)[C@H](O)[C@H]1O` (stereo partly drawn) [acarbose, reference compound], the results for the half-maximal inhibitory concentration (IC50) on sucrase and on pancreatic lipase (PL) were 2340 ± 230 nM and 191000 ± 15200 nM, respectively.
